Read-outs that look alike come from different tables or passages of the source.
What was measured:
[1] = target: hCA IX (Homo sapiens, UniProt Q16790); test: Stopped-flow CO2 hydrase assay, hCA IX inhibition
Experimental: (§1) as indicator, working at the absorbance maximum of 557 nm, with 20 mM Hepes (pH 7.5) as
(§2) buffer, and 20 mM Na2SO4 (for maintaining constant the ionic strength), following the initial
(§3) have been used for determining the initial velocity. The uncatalyzed rates were determined in
(§4) the same manner and subtracted from the total observed rates. Stock solutions of inhibitor
(§5) (0.1 mM) were prepared in distilled−deionized water and dilutions up to 0.01 nM were done
(§6) thereafter with the assay buffer. Inhibitor and enzyme solutions were preincubated together for 15 min at room temperature prior to assay, in order to allow for the formation of the E−I complex. The inhibition constants were subsequently obtained by nonlinear least-squares
(§7) methods using PRISM 3 and the Cheng−Prusoff equation, as reported earlier, and represent
(§8) the mean from at least three different determinations. All CA isofoms were recombinant ones
(§9) obtained in-house as reported earlier2,3.

[2] = target: hCA XII (Homo sapiens, UniProt O43570); test: Stopped-flow CO2 hydrase assay, hCA XII inhibition; conditions: read-out: Ki (nM) hCA XII, mean from 3 different assays, errors ±5–10%
Experimental: as §1, §2, §3, §4, §5, §6, §7, §8, §9

[3] = read-out: Ki (nM) hCA IX, mean from 3 different assays, errors ±5–10%, stopped-flow CO2 hydrase assay

Chain of hCA XII (O43570 25-354): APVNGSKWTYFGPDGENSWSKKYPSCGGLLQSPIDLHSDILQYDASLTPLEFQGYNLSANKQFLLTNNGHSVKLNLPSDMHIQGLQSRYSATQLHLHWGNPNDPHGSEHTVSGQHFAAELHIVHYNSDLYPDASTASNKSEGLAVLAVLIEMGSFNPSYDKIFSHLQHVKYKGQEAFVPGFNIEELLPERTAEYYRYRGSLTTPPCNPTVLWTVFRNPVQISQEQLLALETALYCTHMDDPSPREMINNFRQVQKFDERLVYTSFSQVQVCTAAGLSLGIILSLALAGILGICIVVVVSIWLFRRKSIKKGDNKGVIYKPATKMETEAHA

Question: Which melting point does the source give for `NS(=O)(=O)c1ccc(N2CCN(/C(=N/O)c3ccncc3)CC2)cc1` [Compound 27] here?
Answer: 310 to 311 °C

Question: What about the Ki [1, 3] of the same compound?
Answer: 110 nM

Question: Which melting point does the source give for `NS(=O)(=O)c1ccc(N2CCN(C(=NO)c3ccc(Cl)cc3)CC2)cc1` [Compound 30] here?
Answer: 321 °C

Question: What about the Ki [1] of the same compound?
Answer: 43 nM

Question: Which Ki [1, 3] does the source give for `NS(=O)(=O)c1ccc(N2CCN(/C(=N/O)c3ccccc3)CC2)cc1` [Compound 29] here?
Answer: 121 nM

Question: Which melting point does the source give for `NS(=O)(=O)c1ccc(N2CCN(/C(=N/O)c3ccc(O)cc3)CC2)cc1` [Compound 28] here?
Answer: 320 to 321 °C

Question: What about the Ki [1, 3] of the same compound?
Answer: 1180 nM

Question: What does the source list for `COc1ccc(/C(=N\O)N2CCN(c3ccc(S(N)(=O)=O)cc3)CC2)cc1` [Compound 31]?
Answer: melting point: 310 to 311 °C; Ki [1, 3]: 739 nM

Question: For `NS(=O)(=O)c1ccc(N2CCN(/C(=N/O)c3ccc(F)cc3)CC2)cc1` [Compound 33], which melting point is on record?
Answer: 263 °C

Question: And the Ki [1, 3]?
Answer: 1340 nM

Question: For `Cc1ccc(/C(=N\O)N2CCN(c3ccc(S(N)(=O)=O)cc3)CC2)cc1` [Compound 34], which melting point is on record?
Answer: 263 to 264 °C

Question: What about the Ki [1, 3] of the same compound?
Answer: > 10000 nM

Question: What does the source list for `NS(=O)(=O)c1ccc(N2CCN(/C(=N/O)c3ccc([N+](=O)[O-])cc3)CC2)cc1` [Compound 32]?
Answer: melting point: 302 to 303 °C; Ki [2]: > 10000 nM; Ki [1, 3]: 912 nM

— publication PMC10258898, “Discovery of Novel Hydroxyimine-Tethered Benzenesulfonamides as Potential Human Carbonic Anhydrase IX/XII Inhibitors” (ACS Medicinal Chemistry Letters, 2023)
